Source: PubChem BioAssay AID180 (DTP/NCI, 2004)
Where “and” joins values, the source holds several entries; their conditions need not be identical. Identical values can stand only once.

Test system: BDF1 mice, Adenocarcinoma 755 s.c., tumor weight T/C
Assay: NCI In Vivo Anticancer Drug Screen. Data for tumor model Adenocarcinoma 755 (subcutaneous) in B6D2F1 (BDF1) mice
Settings: endpoint: mean tumor weight, higher = larger tumour
Summary of the method: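 Compound activity was tested in mice carrying transplanted tumors. Survival or tumor size was measured, and each value is the treated-group measurement divided by that of the vehicle-treated control group (T/C).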

With `CN(C)c1nc(N(C)C)nc(N(C)C)n1` the T/C (dose: 4.75 mg/kg/injection, schedule: Q01DX011 (ip), vehicle: other) was 121 % of control, the T/C (dose: 9.5 mg/kg/injection, schedule: Q01DX011 (ip), vehicle: other) was 67 % of control and the T/C (dose: 10.88 mg/kg/injection, schedule: Q01DX011 (ip), vehicle: other) was 95 % of control. The T/C (dose: 10.9 mg/kg/injection, schedule: Q01DX011 (ip), vehicle: other) was 95 % of control, the T/C (dose: 11.25 mg/kg/injection, schedule: Q01DX011 (iv), vehicle: other) was 108 % of control and the T/C (dose: 13.85 mg/kg/injection, schedule: Q01DX011 (ip), vehicle: carboxymethylcellulose (CMC)) was 87 % of control. The T/C (dose: 13.85 mg/kg/injection, schedule: Q01DX011 (ip), vehicle: other) was 104 % of control, the T/C (dose: 14.13 mg/kg/injection, schedule: Q01DX011 (ip), vehicle: other) was 117 % of control and the T/C (dose: 15.6 mg/kg/injection, schedule: Q01DX011 (oral), vehicle: other) was 77 % of control. For the same compound, the T/C (dose: 15.6 mg/kg/injection, schedule: Q01DX011 (oral), vehicle: saline) was 88 % of control, the T/C (dose: 19.0 mg/kg/injection, schedule: Q01DX011 (ip), vehicle: other) was 53 % of control and the T/C (dose: 21.75 mg/kg/injection, schedule: Q01DX011 (ip), vehicle: other) was 55 % of control and 73 % of control. For the same compound, the T/C (dose: 22.5 mg/kg/injection, schedule: Q01DX011 (iv), vehicle: other) was 67 % of control, the T/C (dose: 25.0 mg/kg/injection, schedule: Q01DX011 (ip), vehicle: other) was 59 % of control and the T/C (dose: 27.7 mg/kg/injection, schedule: Q01DX011 (ip), vehicle: carboxymethylcellulose (CMC)) was 161 % of control. The T/C (dose: 27.7 mg/kg/injection, schedule: Q01DX011 (ip), vehicle: other) was 56 % of control, the T/C (dose: 30.37 mg/kg/injection, schedule: Q01DX011 (ip), vehicle: carboxymethylcellulose (CMC)) was 53 % of control and the T/C (dose: 31.25 mg/kg/injection, schedule: Q01DX011 (ip), vehicle: carboxymethylcellulose (CMC)) was 118 % of control. For the same compound, the T/C (dose: 31.25 mg/kg/injection, schedule: Q01DX011 (ip), vehicle: methylcellulose (MC)) was 91 % of control, the T/C (dose: 31.25 mg/kg/injection, schedule: Q01DX011 (iv), vehicle: other) was 80 % of control and 85 % of control and the T/C (dose: 31.3 mg/kg/injection, schedule: Q01DX011 (oral), vehicle: other) was 101 % of control. The T/C (dose: 31.3 mg/kg/injection, schedule: Q01DX011 (oral), vehicle: saline) was 75 % of control, the T/C (dose: 34.8 mg/kg/injection, schedule: Q01DX011 (ip), vehicle: carboxymethylcellulose (CMC)) was 50 % of control and the T/C (dose: 43.5 mg/kg/injection, schedule: Q01DX011 (ip), vehicle: carboxymethylcellulose (CMC)) was 47 % of control. For the same compound, the T/C (dose: 43.5 mg/kg/injection, schedule: Q01DX011 (ip), vehicle: other) was 109 % of control, the T/C (dose: 45.0 mg/kg/injection, schedule: Q01DX011 (iv), vehicle: other) was 89 % of control and the T/C (dose: 55.4 mg/kg/injection, schedule: Q01DX011 (ip), vehicle: carboxymethylcellulose (CMC)) was 96 % of control. The T/C (dose: 55.4 mg/kg/injection, schedule: Q01DX011 (ip), vehicle: other) was 45 % of control, the T/C (dose: 56.5 mg/kg/injection, schedule: Q01DX011 (ip), vehicle: other) was 54 % of control and the T/C (dose: 58.0 mg/kg/injection, schedule: Q01DX011 (ip), vehicle: carboxymethylcellulose (CMC)) was 29 % of control. For the same compound, the T/C (dose: 60.75 mg/kg/injection, schedule: Q01DX011 (ip), vehicle: carboxymethylcellulose (CMC)) was 78 % of control, the T/C (dose: 62.5 mg/kg/injection, schedule: Q01DX011 (ip), vehicle: carboxymethylcellulose (CMC)) was 88 % of control and the T/C (dose: 62.5 mg/kg/injection, schedule: Q01DX011 (ip), vehicle: methylcellulose (MC)) was 82 % of control. For the same compound, the T/C (dose: 62.5 mg/kg/injection, schedule: Q01DX011 (iv), vehicle: other) was 51 % of control and 57 % of control, the T/C (dose: 62.5 mg/kg/injection, schedule: Q01DX011 (oral), vehicle: other) was 74 % of control and the T/C (dose: 62.5 mg/kg/injection, schedule: Q01DX011 (oral), vehicle: saline) was 105 % of control. The T/C (dose: 87.0 mg/kg/injection, schedule: Q01DX011 (ip), vehicle: carboxymethylcellulose (CMC)) was 11 % of control, the T/C (dose: 87.0 mg/kg/injection, schedule: Q01DX011 (ip), vehicle: other) was 14 % of control and the T/C (dose: 121.5 mg/kg/injection, schedule: Q01DX011 (ip), vehicle: carboxymethylcellulose (CMC)) was 48 % of control. The T/C (dose: 125.0 mg/kg/injection, schedule: Q01DX011 (ip), vehicle: carboxymethylcellulose (CMC)) was 43 % of control, the T/C (dose: 125.0 mg/kg/injection, schedule: Q01DX011 (ip), vehicle: methylcellulose (MC)) was 34 % of control and the T/C (dose: 125.0 mg/kg/injection, schedule: Q01DX011 (iv), vehicle: other) was 8 % of control. For the same compound, the T/C (dose: 125.0 mg/kg/injection, schedule: Q01DX011 (oral), vehicle: other) was 54 % of control, the T/C (dose: 125.0 mg/kg/injection, schedule: Q01DX011 (oral), vehicle: saline) was 106 % of control and the T/C (dose: 250.0 mg/kg/injection, schedule: Q01DX011 (ip), vehicle: carboxymethylcellulose (CMC)) was 36 % of control. For the same compound, the T/C (dose: 250.0 mg/kg/injection, schedule: Q01DX011 (oral), vehicle: saline) was 40 % of control.
`OCC1OC(n2cnc3c(Br)ncnc32)C(O)C1O` (centres undefined) was tested, and the T/C (dose: 30.0 mg/kg/injection, schedule: Q01DX011 (ip), vehicle: carboxymethylcellulose (CMC)) was 74 % of control, the T/C (dose: 120.0 mg/kg/injection, schedule: Q01DX011 (ip), vehicle: carboxymethylcellulose (CMC)) was 63 % of control and the T/C (dose: 240.0 mg/kg/injection, schedule: Q01DX011 (ip), vehicle: carboxymethylcellulose (CMC)) was 49 % of control.
With `NC(=O)c1ccccc1Nc1ccc([N+](=O)[O-])cc1[N+](=O)[O-]` the T/C (dose: 34.0 mg/kg/injection, schedule: Q01DX011 (ip), vehicle: carboxymethylcellulose (CMC)) was 102 % of control and the T/C (dose: 100.0 mg/kg/injection, schedule: Q01DX011 (ip), vehicle: carboxymethylcellulose (CMC)) was 115 % of control.
In the case of `Nc1ncnc2c1ncn2C1CCCO1` (centres undefined), the T/C (dose: 18.7 mg/kg/injection, schedule: Q01DX011 (ip), vehicle: saline) was 111 % of control, the T/C (dose: 37.5 mg/kg/injection, schedule: Q01DX011 (ip), vehicle: saline) was 120 % of control and the T/C (dose: 75.0 mg/kg/injection, schedule: Q01DX011 (ip), vehicle: saline) was 119 % of control. The T/C (dose: 150.0 mg/kg/injection, schedule: Q01DX011 (ip), vehicle: saline) was 52 % of control and the T/C (dose: 300.0 mg/kg/injection, schedule: Q01DX011 (ip), vehicle: saline) was 23 % of control.
`[I][Hg][CH2][C@H]1CO[C@H]([CH2][Hg][I])CO1` was tested, and the T/C (dose: 6.0 mg/kg/injection, schedule: Q01DX011 (ip), vehicle: carboxymethylcellulose (CMC)) was 95 % of control, the T/C (dose: 12.0 mg/kg/injection, schedule: Q01DX011 (ip), vehicle: carboxymethylcellulose (CMC)) was 46 % of control and the T/C (dose: 25.0 mg/kg/injection, schedule: Q01DX011 (ip), vehicle: carboxymethylcellulose (CMC)) was 32 % of control and 33 % of control. For the same compound, the T/C (dose: 50.0 mg/kg/injection, schedule: Q01DX011 (ip), vehicle: carboxymethylcellulose (CMC)) was 21 % of control.
With `C[N+](C)(C)c1nc(N)nc2c1ncn2C1OC(CO)C(O)C1O` (centres undefined) the T/C (dose: 30.0 mg/kg/injection, schedule: Q01DX011 (ip), vehicle: saline) was 114 % of control, the T/C (dose: 60.0 mg/kg/injection, schedule: Q01DX011 (ip), vehicle: saline) was 101 % of control and the T/C (dose: 120.0 mg/kg/injection, schedule: Q01DX011 (ip), vehicle: saline) was 52 % of control. For the same compound, the T/C (dose: 240.0 mg/kg/injection, schedule: Q01DX011 (ip), vehicle: saline) was 24 % of control and the T/C (dose: 400.0 mg/kg/injection, schedule: Q01DX011 (ip), vehicle: saline) was 3 % of control.
With `COc1ccc(C2=NC(=O)NC2c2ccc(OC)cc2)cc1` (centres undefined) the T/C (dose: 10.0 mg/kg/injection, schedule: Q01DX011 (ip), vehicle: saline) was 112 % of control and the T/C (dose: 50.0 mg/kg/injection, schedule: Q01DX011 (ip), vehicle: saline) was 18 % of control.
In the case of `CCOC(=O)/C(C)=N\Nc1cc(Cl)nc(N)n1`, the T/C (dose: 112.0 mg/kg/injection, schedule: Q01DX011 (ip), vehicle: methylcellulose (MC)) was 200 % of control.
In the case of `Nc1nc(=S)c2[nH]cnc2[nH]1.[Cu+2]`, the T/C (dose: 0.62 mg/kg/injection, schedule: Q01DX011 (ip), vehicle: carboxymethylcellulose (CMC)) was 98 % of control, the T/C (dose: 1.25 mg/kg/injection, schedule: Q01DX011 (ip), vehicle: carboxymethylcellulose (CMC)) was 83 % of control and the T/C (dose: 2.5 mg/kg/injection, schedule: Q01DX011 (ip), vehicle: carboxymethylcellulose (CMC)) was 105 % of control. For the same compound, the T/C (dose: 5.0 mg/kg/injection, schedule: Q01DX011 (ip), vehicle: carboxymethylcellulose (CMC)) was 59 % of control.
`CC1CC(C)(O)CC(C(O)CC2CC(=O)NC(=O)C2)C1=O` (centres undefined) was tested, and the T/C (dose: 0.05 mg/kg/injection, schedule: Q01DX011 (ip), vehicle: methylcellulose (MC)) was 71 % of control, the T/C (dose: 0.1 mg/kg/injection, schedule: Q01DX011 (ip), vehicle: alkali diluted with saline) was 62 % of control and the T/C (dose: 0.1 mg/kg/injection, schedule: Q01DX011 (ip), vehicle: methylcellulose (MC)) was 44 % of control. The T/C (dose: 0.2 mg/kg/injection, schedule: Q01DX011 (ip), vehicle: alkali diluted with saline) was 17 % of control and the T/C (dose: 0.2 mg/kg/injection, schedule: Q01DX011 (ip), vehicle: methylcellulose (MC)) was 32 % of control.
For `CCc1c(Cl)nc(N)nc1Nc1ccc(Cl)c(Cl)c1`, the T/C (dose: 15.0 mg/kg/injection, schedule: Q01DX011 (ip), vehicle: methylcellulose (MC)) was 117 % of control and the T/C (dose: 31.0 mg/kg/injection, schedule: Q01DX011 (ip), vehicle: methylcellulose (MC)) was 123 % of control.
